# According to patent US20240150356A1, “Pyrimidine amide compounds and use thereof” (ALPHALA CO., LTD., priority 2019, published 2024):
# Tested on: Hep3B cells (hepatocellular carcinoma cell line)
# Experiment: In vitro MTS cell viability assay (NCI-60 methodology), Hep3B
# Assay type: cell-based
# Settings: Homo sapiens, 48 h, Table 2, MTS, 2 days drug incubation, 50% reduction vs time zero, read-out: Hep3B LC50
# Method: The cell viability measurement is based on the NCI-60 screening methodology (Nat. Rev. Cancer 6, 813-823, 2006). Briefly, cells are inoculated into 96-well plates at the optimal plating density. After 24 h, one of the two plates for Hep3B cell line is processed to determine a time zero cell viability (Tz) by MTS assay (Promega). Compounds are added over a 2-fold serial dilution to provide a total five drug concentrations plus DMSO control. Plates are incubated for a further 2 days, then measured cell viability by MTS assay [control growth (C) and test growth in the presence of drug at the five concentration levels (Ti)]. The LC50 is calculated from [(Ti−Tz)/Tz]×100=−50, which is the drug concentration resulting in a 50% reduction at the end of the drug treatment as compared to that at the beginning.
# The compounds prepared in Tables 1-10 were tested in three in vitro assays, and the results are shown in Tables 1-10 for Hep3B and Table 11 for SW480 and NCI-H460 shown below. Herein, Hep3B refers to hepatocellular carcinoma cell line, SW480 refers to colon adenocarcinoma cell line, and NCI-H460 refers to human lung cancer cell line.
# Shown in following Tables 1 to 10 are the structures and in vitro activities of exemplary compounds of formula (I).
row,SMILES,LC50
1,"CC(C)n1ncc2c(-c3ccc(OC(F)(F)F)cc3)nc(NC(=O)c3ccc([N+](=O)[O-])s3)nc21 [Compound 2-3, N-(1-isopropyl-4-(4-(trifluoromethoxy)phenyl)-1H-pyrazolo[3,4-d]pyrimidin-6-yl)-5-nitrothiophene-2-carboxamide]",4020 nM

# Same assay, conditions: Homo sapiens, 48 h, Table 4, MTS, 2 days drug incubation, 50% reduction vs time zero, read-out: Hep3B LC50
row,SMILES,LC50
1,"O=C(Nc1nc(-c2ccc(Cl)c(F)c2)nc2c(-c3ccccc3)csc12)c1ccc([N+](=O)[O-])s1 [Compound 4-16, N-(2-(4-chloro-3-fluorophenyl)-7-phenylthieno[3,2-d]pyrimidin-4-yl)-5-nitrothiophene-2-carboxamide]",560 nM
2,"Cc1csc2c(NC(=O)c3ccc([N+](=O)[O-])s3)nc(-c3cc(C(F)(F)F)ccc3F)nc12 [Compound 4-13, N-(2-(2-fluoro-5-(trifluoromethyl)phenyl)-7-methylthieno[3,2-d]pyrimidin-4-yl)-5-nitrothiophene-2-carboxamide]",1700 nM

# Same assay, conditions: Homo sapiens, 48 h, Table 5, MTS, 2 days drug incubation, 50% reduction vs time zero, read-out: Hep3B LC50
row,SMILES,LC50
1,"N#C[C@@H]1CCN(c2nc(NC(=O)c3ccc([N+](=O)[O-])s3)c3cnn(-c4ccccc4)c3n2)C1 [Compound 5-5, (R)—N-(6-(3-cyanopyrrolidin-1-yl)-1-phenyl-1H-pyrazolo[3,4-d]pyrimidin-4-yl)-5-nitrothiophene-2-carboxamide]",500 nM
2,"CCOCCOc1ccc(-c2nc(NC(=O)c3ccc([N+](=O)[O-])s3)c3cnn(-c4ccccc4)c3n2)cn1 [Compound 5-55, N-(6-(6-(2-ethoxyethoxy)pyridin-3-yl)-1-phenyl-1H-pyrazolo[3,4-d]pyrimidin-4-yl)-5-nitrothiophene-2-carboxamide]",490 nM
3,"Cc1ccc(-c2nc(NC(=O)c3ccc([N+](=O)[O-])s3)c3cnn(-c4ccccc4)c3n2)cn1 [Compound 5-34, N-(6-(6-methylpyridin-3-yl)-1-phenyl-1H-pyrazolo[3,4-d]pyrimidin-4-yl)-5-nitrothiophene-2-carboxamide]",850 nM
4,"O=C(Nc1nc(-c2cccc(F)c2)nc2c1cnn2-c1ccccc1)c1ccc([N+](=O)[O-])s1 [Compound 5-26, N-(6-(3-fluorophenyl)-1-phenyl-1H-pyrazolo[3,4-d]pyrimidin-4-yl)-5-nitrothiophene-2-carboxamide]",410 nM
5,"O=C(Nc1nc(-c2ccc(Cl)s2)nc2c1cnn2-c1ccccc1)c1ccc([N+](=O)[O-])s1 [Compound 5-19, N-(6-(5-chlorothiophen-2-yl)-1-phenyl-1H-pyrazolo[3,4-d]pyrimidin-4-yl)-5-nitrothiophene-2-carboxamide]",170 nM
6,"O=C(Nc1nc(-c2ccc(C(F)(F)F)c(F)c2)nc2c1cnn2-c1ccccc1)c1ccc([N+](=O)[O-])s1 [Compound 5-52, N-(6-(3-fluoro-4-(trifluoromethyl)phenyl)-1-phenyl-1H-pyrazolo[3,4-d]pyrimidin-4-yl)-5-nitrothiophene-2-carboxamide]",> 1250 nM

# Same assay, conditions: Homo sapiens, 48 h, Table 6, MTS, 2 days drug incubation, 50% reduction vs time zero, read-out: Hep3B LC50
row,SMILES,LC50
1,"CC(C)(C)c1ccc(-n2ncc3c(NC(=O)c4ccc([N+](=O)[O-])s4)nc(N4CCC(F)(F)CC4)nc32)cc1 [Compound 6-67, N-(1(4-(tert-butyl)phenyl)-6-(4,4-difluoropiperidin-1-yl)-1H-pyrazolo[3,4-d]pyrimidin-4-yl)-5-nitrothiophene-2-carboxamide]",730 nM
2,"CC(C)(C)c1ccc(-n2ncc3c(NC(=O)c4ccc([N+](=O)[O-])s4)nc(N4CCCCC4)nc32)cc1 [Compound 6-63, N-(1-(4-(tert-butyl)phenyl)-6-(piperidin-1-yl)-1H-pyrazolo[3,4-d]pyrimidin-4-yl)-5-nitrothiophene-2-carboxamide]",1920 nM
3,CCOCCOCCOc1ccc(-c2nc(NC(=O)c3ccc([N+](=O)[O-])s3)c3cnn(-c4ccc(C)cc4)c3n2)cn1 [Compound 6-14],220 nM
4,CCC(C)(C)c1ccc(-c2nc(NC(=O)c3ccc([N+](=O)[O-])s3)c3cnn(-c4ccc(OC(F)(F)F)cc4)c3n2)cc1 [Compound 6-87],> 2000 nM
5,"CCOCCOCCOc1cc(Cl)ccc1-c1nc(NC(=O)c2ccc([N+](=O)[O-])s2)c2cnn(-c3ccc(F)cc3)c2n1 [Compound 6-140, N-(6-(4-chloro-2-(2-(2-ethoxyethoxy)ethoxy)phenyl)-1-(4-fluorophenyl)-1H-pyrazolo[3,4-d]pyrimidin-4-yl)-5-nitrothiophene-2-carboxamide]",4830 nM
6,"COc1ccc(-c2nc(NC(=O)c3ccc([N+](=O)[O-])s3)c3cnn(-c4ccc(C)cc4)c3n2)cn1 [Compound 6-6, N-(6-(6-methoxypyridin-3-yl)-1-(p-tolyl)-1H-pyrazolo[3,4-d]pyrimidin-4-yl)-5-nitrothiophene-2-carboxamide]",400 nM
7,"O=C(Nc1nc(-c2ccc(N3CCOCC3)nc2)nc2c1cnn2-c1ccc(F)cc1)c1ccc([N+](=O)[O-])s1 [Compound 6-141, N-(1-(4-fluorophenyl)-6-(6-morpholinopyridin-3-yl)-1H-pyrazolo[3,4-d]pyrimidin-4-yl)-5-nitrothiophene-2-carboxamide]",420 nM
8,Cc1ccc(-n2ncc3c(NC(=O)c4ccc([N+](=O)[O-])s4)nc(-c4ccc5c(c4)OCO5)nc32)cc1 [Compound 6-9],400 nM

# Same assay, conditions: Homo sapiens, 48 h, Table 7, MTS, 2 days drug incubation, 50% reduction vs time zero, read-out: Hep3B LC50
row,SMILES,LC50
1,O=C(Nc1nc(-c2ccc(F)cc2)nc2c1cnn2-c1ccc(F)cc1F)c1ccc([N+](=O)[O-])s1 [Compound 7-12],430 nM
2,"O=C(Nc1nc(-c2ccc(C(F)(F)F)cc2)nc2c1cnn2-c1ccc(C(F)(F)F)cn1)c1ccc([N+](=O)[O-])s1 [Compound 7-4, 5-nitro-N-(6-(4-(trifluoromethyl)phenyl)-1-(5-(trifluoromethyl)pyridin-2-yl)-1H-pyrazolo[3,4-d]pyrimidin-4-yl)thiophene-2-carboxamide]",220 nM

# Same assay, conditions: Homo sapiens, 48 h, Table 9, MTS, 2 days drug incubation, 50% reduction vs time zero, read-out: Hep3B LC50
row,SMILES,LC50
1,CC(C)N1CCC(n2ncc3c(NC(=O)c4ccc([N+](=O)[O-])s4)nc(-c4ccc(F)nc4)nc32)CC1 [Compound 9-1],1250 nM

# Same assay, conditions: Homo sapiens, 48 h, Table 10, MTS, 2 days drug incubation, 50% reduction vs time zero, read-out: Hep3B LC50
row,SMILES,LC50
1,"CC(=O)c1ccc(-c2nc(NC(=O)c3ccc([N+](=O)[O-])s3)c3cnn(C4CCCCC4)c3n2)cc1 [Compound 10-28, N-(6-(4-acetylphenyl)-1-cyclohexyl-1H-pyrazolo[3,4-d]pyrimidin-4-yl)-5-nitrothiophene-2-carboxamide]",1930 nM
2,"O=C(Nc1nc(-c2ccc(Cl)cc2)nc2c1cnn2C1CCCCC1)c1ccc([N+](=O)[O-])s1 [Compound 10-17, N-(6-(4-chlorophenyl)-1-cyclohexyl-1H-pyrazolo[3,4-d]pyrimidin-4-yl)-5-nitrothiophene-2-carboxamide]",530 nM
3,"O=C(Nc1nc(-c2ccccc2F)nc2c1cnn2C1CCCCC1)c1ccc([N+](=O)[O-])s1 [Compound 10-11, N-(1-cyclohexyl-6-(2-fluorophenyl)-1H-pyrazolo[3,4-d]pyrimidin-4-yl)-5-nitrothiophene-2-carboxamide]",1940 nM
4,"O=C(Nc1nc(-c2ccc(OCC(F)(F)C(F)F)nc2)nc2c1cnn2C1CCCCC1)c1ccc([N+](=O)[O-])s1 [Compound 10-52, N-(1-cyclohexyl-6-(6-(2,2,3,3-tetrafluoropropoxy)pyridin-3-yl)-1H-pyrazolo[3,4-d]pyrimidin-4-yl)-5-nitrothiophene-2-carboxamide]",420 nM
5,"CCCOc1ccc(-c2nc(NC(=O)c3ccc([N+](=O)[O-])s3)c3cnn(C4CCC(F)(F)CC4)c3n2)cc1 [Compound 10-60, N-(1-(4,4-difluorocyclohexyl)-6-(4-propoxyphenyl)-1H-pyrazolo[3,4-d]pyrimidin-4-yl)-5-nitrothiophene-2-carboxamide]",830 nM
